The test system of series [1] is HeLa cells. The series can be described thus: MTT cytotoxicity assay. The format is cell-based. As to conditions: 10 ppm; cells treated with AuHNRs-DTPP and laser. The procedure:
The in vitro cytotoxicity of AuHNRs-DTPP nanocarrier against HeLa cells were studied by standard MTT assay. In brief, HeLa cells were seeded on 96-well plates with a density of 5000 cells per well. When the cell density came to 80%, the medium was removed and various concentrations of AuHNRs-DTPP nanocarrier in DMEM with 10% FBS were added. After incubation for 6 h, the medium was replaced by 200 μL of fresh medium. For none-treated group or single laser treated group, cells received corresponding treatment and then further incubated for 48 h. And for combined treatment group, cells received 1064 nm laser irradiation and incubated for 2 h. After that, cells received laser irradiation (633 nm) and then further incubated for 48 h. Then, the standard MTT assay was conducted to determine the cell viability. And for COS-7, same operation process was taken.

In series [2] the test system is H22 tumor. The series can be described thus: In vivo fluorescence imaging. As to conditions: tumor bearing mice; i.v.; before laser irradiation, within 8 h. On the procedure:
Animal experiments were conducted based on the guidelines for laboratory animals established by the Huazhong Agricultural University. In vivo imaging started when tumor volume approximated 200 mm^3. For photothermal imaging 200 μL AuHNRs-DTPP was intravenously injected into the mice, and the equal volume of PBS buffer was taken as the control. Infrared thermal images were recorded by using a FLIR E85 camera under 1064 nm laser irradiation at a power density of 0.69 W·cm^-2. In vivo fluorescence imaging was collected by a Maestro in vivo imaging system. The tumor bearing mice were intravenously administrated with 200 μL AuHNRs-DTPP (1 g·L^-1) or free DTPP (30 mg·L^-1) solution. Then the mice were anesthetized and imaged at pre-set time. It should be noted that mice received 1064 nm laser irradiation (10 min, 0.69 W·cm^-2) at the 8th h post-injection.

The nature of series [3]: Solubility of DTPP. It is filed as physicochemical.
Series [4] can be described thus: Fluorescence, ROS and singlet oxygen generation, cell-free.

For the compound `O=C1O[C@H]([C@@H](O)CO)C(O)=C1O` [Vitamin C], the “effect on cell viability as ROS scavenger” value in series [1] is listed as “significantly improve the cell viability”.

Turning to PpIX-PEG8-GGK(TPP)GRDEVDGC [DTPP], the “in vivo fluorescence signal” value in series [2] is “fluorescence signal appeared all over the body”. Also, in series [3] (DI water), the “solubility in DI water” value was “almost insoluble”. The “solubility in PBS” value in series [3] (PBS) is given as “good solubility”. The “singlet oxygen ESR signal” value is reported as “obvious ESR signal” in series [4] (treated with laser) and “no ESR signal” in series [4] (without laser irradiation).

(Values after article PMC6691385, “Au Hollow Nanorods-Chimeric Peptide Nanocarrier for NIR-II Photothermal Therapy and Real-time Apoptosis Imaging for Tumor Theranostics” (Theranostics, 2019).)
